For assay [1], the target named is Neuronal acetylcholine receptor; alpha9/alpha10 (Homo sapiens, UniProt Q9GZZ6+Q9UGM1). As to the kind of experiment: Inhibition of human alpha9alpha10 nAChR expressed in Xenopus laevis oocytes assessed as inhibition of Ach-induced response at -80 mV holding potential preincubated for 5 mins followed by Ach stimulation by two electrode voltage-clamp assay. Format: cell-based, Oocyte.

The next assay deals with GABA-B receptor (Homo sapiens, UniProt O75899+Q9UBS5). Briefly: Activation of human GABAB1/GABAB2 expressed in HEK293 cells co-transfected with rat CaV2.2 channel assessed as reduction in CaV2.2-mediated peak-current amplitude in response to the depolarizing pulse by whole cell patch clamp assay. Format: cell-based, HEK293T. For orientation: Patch clamp records ionic current or voltage across a cell membrane.
Chain of GABA-B receptor (Q9UBS5 whole entry): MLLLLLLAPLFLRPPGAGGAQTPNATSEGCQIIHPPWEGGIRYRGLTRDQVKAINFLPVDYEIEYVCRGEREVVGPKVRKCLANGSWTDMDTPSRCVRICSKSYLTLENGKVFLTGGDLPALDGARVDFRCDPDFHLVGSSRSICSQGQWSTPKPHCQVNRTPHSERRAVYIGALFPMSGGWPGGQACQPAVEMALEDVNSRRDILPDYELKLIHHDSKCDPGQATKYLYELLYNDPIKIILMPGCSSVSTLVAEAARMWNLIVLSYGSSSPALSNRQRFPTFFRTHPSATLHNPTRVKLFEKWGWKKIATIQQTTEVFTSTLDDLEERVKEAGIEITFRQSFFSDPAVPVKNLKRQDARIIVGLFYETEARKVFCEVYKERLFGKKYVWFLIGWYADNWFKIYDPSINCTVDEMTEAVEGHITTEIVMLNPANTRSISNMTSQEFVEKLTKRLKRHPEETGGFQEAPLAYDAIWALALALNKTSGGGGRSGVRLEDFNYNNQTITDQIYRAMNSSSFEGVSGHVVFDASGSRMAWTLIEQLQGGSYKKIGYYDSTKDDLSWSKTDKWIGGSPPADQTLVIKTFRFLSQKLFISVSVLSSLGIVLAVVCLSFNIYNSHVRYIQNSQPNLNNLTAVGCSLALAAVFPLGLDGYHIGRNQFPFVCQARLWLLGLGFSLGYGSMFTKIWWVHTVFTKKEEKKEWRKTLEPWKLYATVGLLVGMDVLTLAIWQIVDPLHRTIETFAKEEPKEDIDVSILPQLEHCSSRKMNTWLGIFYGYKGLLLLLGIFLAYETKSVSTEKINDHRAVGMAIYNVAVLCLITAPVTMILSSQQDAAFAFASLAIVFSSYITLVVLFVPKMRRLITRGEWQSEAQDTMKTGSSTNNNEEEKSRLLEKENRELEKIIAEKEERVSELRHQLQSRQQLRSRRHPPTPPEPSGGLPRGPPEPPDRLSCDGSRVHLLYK
Chain of GABA-B receptor (O75899 whole entry): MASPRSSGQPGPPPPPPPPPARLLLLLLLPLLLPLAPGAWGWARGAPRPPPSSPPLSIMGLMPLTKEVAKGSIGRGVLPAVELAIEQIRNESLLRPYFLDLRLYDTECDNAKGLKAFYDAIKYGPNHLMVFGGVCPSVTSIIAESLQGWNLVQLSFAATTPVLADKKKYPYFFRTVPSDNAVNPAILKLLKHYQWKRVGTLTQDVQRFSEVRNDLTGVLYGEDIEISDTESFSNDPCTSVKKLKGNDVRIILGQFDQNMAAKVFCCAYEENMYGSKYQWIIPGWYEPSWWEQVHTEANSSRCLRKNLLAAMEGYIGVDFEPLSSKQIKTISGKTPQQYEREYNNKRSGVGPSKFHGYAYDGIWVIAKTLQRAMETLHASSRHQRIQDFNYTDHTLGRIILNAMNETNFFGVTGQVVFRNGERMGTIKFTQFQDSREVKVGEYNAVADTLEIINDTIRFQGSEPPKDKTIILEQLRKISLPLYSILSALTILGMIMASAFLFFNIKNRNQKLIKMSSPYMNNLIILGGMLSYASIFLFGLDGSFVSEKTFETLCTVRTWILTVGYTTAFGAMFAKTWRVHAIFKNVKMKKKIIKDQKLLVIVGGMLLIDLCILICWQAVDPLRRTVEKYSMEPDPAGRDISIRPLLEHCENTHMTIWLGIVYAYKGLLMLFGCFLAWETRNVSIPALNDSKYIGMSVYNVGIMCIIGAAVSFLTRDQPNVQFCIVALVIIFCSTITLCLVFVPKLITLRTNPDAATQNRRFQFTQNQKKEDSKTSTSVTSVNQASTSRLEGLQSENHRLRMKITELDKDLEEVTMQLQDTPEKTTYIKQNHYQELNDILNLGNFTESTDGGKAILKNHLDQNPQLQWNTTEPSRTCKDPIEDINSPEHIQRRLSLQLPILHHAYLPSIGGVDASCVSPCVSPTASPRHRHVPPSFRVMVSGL

Assay [2] can be described thus: Selectivity index, ratio of IC50 for inhibition of human alpha9alpha10 nAChR expressed in Xenopus laevis oocytes to IC50 for activation of human GABAB1/GABAB2 expressed in HEK293 cells co-transfected with rat CaV2.2 channel assessed as reduction in CaV2.2-mediated peak-current amplitude. Format: cell-based.
A short description of assay [3]: Selectivity index, ratio of IC50 for inhibition of rat alpha9alpha10 nAChR expressed in Xenopus laevis oocytes to IC50 for activation of human GABAB1/GABAB2 expressed in HEK293 cells co-transfected with rat CaV2.2 channel assessed as reduction in CaV2.2-mediated peak Ba2+ current amplitude. The format is cell-based.
The target in assay [4] is Nicotinic acetylcholine receptor alpha9/alpha10 (Rattus norvegicus, UniProt P43144+Q9JLB5). As to the kind of experiment: Inhibition of rat alpha9alpha10 nAChR expressed in Xenopus laevis oocytes assessed as inhibition of Ach-induced response at -80 mV holding potential preincubated for 5 mins followed by Ach stimulation by two electrode voltage-clamp assay. Format: cell-based, Oocyte. (In general: Two-electrode voltage clamp is typically applied to oocytes expressing channels or transporters.)
Chain of Nicotinic acetylcholine receptor alpha9/alpha10 (P43144 whole entry): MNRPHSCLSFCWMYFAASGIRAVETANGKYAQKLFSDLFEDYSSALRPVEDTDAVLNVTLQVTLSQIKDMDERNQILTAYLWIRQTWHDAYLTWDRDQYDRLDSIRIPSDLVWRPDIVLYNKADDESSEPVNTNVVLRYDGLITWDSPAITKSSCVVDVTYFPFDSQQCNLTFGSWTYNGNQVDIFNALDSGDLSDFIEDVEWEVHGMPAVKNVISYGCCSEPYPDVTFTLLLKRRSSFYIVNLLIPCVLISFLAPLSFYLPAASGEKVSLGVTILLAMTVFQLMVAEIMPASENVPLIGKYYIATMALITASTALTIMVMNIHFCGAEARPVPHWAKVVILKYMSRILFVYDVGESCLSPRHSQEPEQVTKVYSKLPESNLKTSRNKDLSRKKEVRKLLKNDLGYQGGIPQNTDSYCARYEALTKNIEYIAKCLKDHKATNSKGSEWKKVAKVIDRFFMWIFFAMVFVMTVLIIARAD
Chain of Nicotinic acetylcholine receptor alpha9/alpha10 (Q9JLB5 whole entry): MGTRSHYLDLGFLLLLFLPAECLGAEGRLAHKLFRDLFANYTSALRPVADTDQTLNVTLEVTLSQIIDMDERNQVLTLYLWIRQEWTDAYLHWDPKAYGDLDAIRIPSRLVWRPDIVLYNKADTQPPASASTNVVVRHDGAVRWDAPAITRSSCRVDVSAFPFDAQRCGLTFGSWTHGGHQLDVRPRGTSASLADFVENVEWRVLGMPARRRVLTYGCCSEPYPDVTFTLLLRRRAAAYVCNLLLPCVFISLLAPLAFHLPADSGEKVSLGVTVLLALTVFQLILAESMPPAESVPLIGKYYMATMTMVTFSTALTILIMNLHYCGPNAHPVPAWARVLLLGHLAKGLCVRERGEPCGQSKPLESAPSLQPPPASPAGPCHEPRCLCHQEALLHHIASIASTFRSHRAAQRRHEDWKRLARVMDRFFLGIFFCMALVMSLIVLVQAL

Another assay concerns Rattus norvegicus. As to the kind of experiment: Analgesic activity in Sprague-Dawley rat model of PNL injury-induced neuropathic pain assessed as pain threshold elevation percentage at 15 nmol/kg, IM administered as single dose measured after 2 to 2.5 hrs post dose. The format is functional. The following applies: time 2-2.5 hrs.

As usually defined, the IC50 is the concentration that gives 50% inhibition.

Peptide text beside a SMILES is read from it.

Chain of Neuronal acetylcholine receptor; alpha9/alpha10 (Q9UGM1 whole entry): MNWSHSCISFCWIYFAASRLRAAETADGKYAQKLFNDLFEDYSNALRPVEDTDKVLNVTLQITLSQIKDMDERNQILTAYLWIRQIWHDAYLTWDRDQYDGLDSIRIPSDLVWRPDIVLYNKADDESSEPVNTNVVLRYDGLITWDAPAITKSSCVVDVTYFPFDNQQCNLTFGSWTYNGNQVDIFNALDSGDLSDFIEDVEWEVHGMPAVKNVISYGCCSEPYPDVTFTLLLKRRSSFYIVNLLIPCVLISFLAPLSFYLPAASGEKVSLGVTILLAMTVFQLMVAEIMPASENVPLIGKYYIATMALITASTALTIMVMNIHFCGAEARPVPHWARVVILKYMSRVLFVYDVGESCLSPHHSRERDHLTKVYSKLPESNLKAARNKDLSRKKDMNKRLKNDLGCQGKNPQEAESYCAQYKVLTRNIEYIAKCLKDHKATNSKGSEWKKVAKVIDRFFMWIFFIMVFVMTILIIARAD
Chain of Neuronal acetylcholine receptor; alpha9/alpha10 (Q9GZZ6 whole entry): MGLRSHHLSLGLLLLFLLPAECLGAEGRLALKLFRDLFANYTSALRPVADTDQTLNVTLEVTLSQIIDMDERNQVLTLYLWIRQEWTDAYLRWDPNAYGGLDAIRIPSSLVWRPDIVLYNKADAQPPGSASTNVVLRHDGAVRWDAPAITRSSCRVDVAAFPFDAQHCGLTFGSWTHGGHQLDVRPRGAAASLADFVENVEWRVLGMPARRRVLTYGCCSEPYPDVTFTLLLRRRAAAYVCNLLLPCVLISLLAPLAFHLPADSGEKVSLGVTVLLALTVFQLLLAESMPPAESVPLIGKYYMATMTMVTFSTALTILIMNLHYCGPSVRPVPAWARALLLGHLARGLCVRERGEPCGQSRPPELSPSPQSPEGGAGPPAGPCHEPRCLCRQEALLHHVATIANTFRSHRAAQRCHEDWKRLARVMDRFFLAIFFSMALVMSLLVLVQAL

For the compound `CC[C@H](C)[C@H](NC(=O)[C@H](CCC(=O)O)NC(=O)[C@@H]1CCCN1C(=O)[C@H](Cc1cnc[nH]1)NC(=O)[C@H](CC(=O)O)NC(=O)[C@H](Cc1ccc(O)cc1)NC(=O)[C@H](CC(N)=O)NC(=O)[C@H](CS)NC(=O)[C@H](CCCNC(=N)N)NC(=O)[C@@H]1CCCN1C(=O)[C@H](CC(=O)O)NC(=O)[C@H](CO)NC(=O)[C@H](CS)NC(=O)[C@H](CS)NC(=O)CNC(=O)c1ccccc1)C(=O)N[C@@H](CS)C(N)=O`, the IC50 in assay [1] amounted to 12500 nM; on GABA-B receptor, 1.2 nM. The Ratio IC50 in assay [2] was above 10000.

Turning to `CC[C@H](C)[C@H](NC(=O)[C@H](CCC(=O)O)NC(=O)[C@@H]1CCCN1C(=O)[C@H](Cc1cnc[nH]1)NC(=O)[C@H](CC(=O)O)NC(=O)[C@H](Cc1ccc(O)cc1)NC(=O)[C@H](CCCNC(=N)N)NC(=O)[C@H](CS)NC(=O)[C@H](CCCNC(=N)N)NC(=O)[C@@H]1CCCN1C(=O)[C@H](CC(=O)O)NC(=O)[C@H](CO)NC(=O)[C@H](CS)NC(=O)[C@H](CS)NC(=O)CNC(C)=O)C(=O)N[C@@H](CS)C(N)=O` (Ac-GCCSDPRCRYDHPEIC-NH2), the IC50 at GABA-B receptor was found to be 18.9 nM; in assay [4] it was 2420 nM. Further, in assay [3], the Ratio IC50 is 128. In addition, in the assay on Rattus norvegicus, the Activity worked out at 24.8%.

With `CC[C@H](C)[C@H](NC(=O)[C@H](CCC(=O)O)NC(=O)[C@@H]1CCCN1C(=O)[C@H](Cc1cnc[nH]1)NC(=O)[C@H](CC(=O)O)NC(=O)[C@H](Cc1ccc(O)cc1)NC(=O)[C@H](CCCNC(=N)N)NC(=O)[C@H](CS)NC(=O)[C@H](CCCNC(=N)N)NC(=O)[C@@H]1CCCN1C(=O)[C@H](CC(=O)O)NC(=O)[C@H](CO)NC(=O)[C@H](CS)NC(=O)[C@@H](N)CS)C(=O)N[C@@H](CS)C(N)=O` (H-CCSDPRCRYDHPEIC-NH2), the IC50 on GABA-B receptor worked out at 23.2 nM. Moreover, the Activity in the assay on Rattus norvegicus stood at 32.5%.

Consider `CC[C@H](C)[C@H](NC(=O)[C@H](CCC(=O)O)NC(=O)[C@@H]1CCCN1C(=O)[C@H](Cc1cnc[nH]1)NC(=O)[C@H](CC(N)=O)NC(=O)[C@H](Cc1ccc(O)cc1)NC(=O)[C@H](CCCNC(=N)N)NC(=O)[C@H](CS)NC(=O)[C@H](CCCNC(=N)N)NC(=O)[C@@H]1CCCN1C(=O)[C@H](CC(=O)O)NC(=O)[C@H](CO)NC(=O)[C@H](CS)NC(=O)[C@H](CS)NC(=O)CN)C(=O)N[C@@H](CS)C(N)=O` (H-GCCSDPRCRYNHPEIC-NH2), for which the IC50 at GABA-B receptor was above 1000 nM; in assay [4], 13900 nM. For the same compound, the Ratio IC50 in assay [3] is below 13.9. Moreover, in the assay with Rattus norvegicus, the Activity stood at 40.8%.

Turning to `CC[C@H](C)[C@H](NC(=O)[C@H](CCC(=O)O)NC(=O)[C@@H]1CCCN1C(=O)[C@H](Cc1cnc[nH]1)NC(=O)[C@H](CCCNC(=N)N)NC(=O)[C@H](Cc1ccc(O)cc1)NC(=O)[C@H](CCCNC(=N)N)NC(=O)[C@H](CS)NC(=O)[C@H](CCCNC(=N)N)NC(=O)[C@@H]1CCCN1C(=O)[C@H](CC(=O)O)NC(=O)[C@H](CO)NC(=O)[C@H](CS)NC(=O)[C@H](CS)NC(=O)CN)C(=O)N[C@@H](CS)C(N)=O` (H-GCCSDPRCRYRHPEIC-NH2), on GABA-B receptor, the IC50 is above 1000 nM. Further, the Activity in the assay with Rattus norvegicus was found to be 35.3%.

Take `CC[C@H](C)[C@H](NC(=O)[C@H](CCC(=O)O)NC(=O)[C@@H]1CCCN1C(=O)[C@H](Cc1cnc[nH]1)NC(=O)[C@H](CO)NC(=O)[C@H](Cc1ccc(O)cc1)NC(=O)[C@H](CCCNC(=N)N)NC(=O)[C@H](CS)NC(=O)[C@H](CCCNC(=N)N)NC(=O)[C@@H]1CCCN1C(=O)[C@H](CC(=O)O)NC(=O)[C@H](CO)NC(=O)[C@H](CS)NC(=O)[C@H](CS)NC(=O)CN)C(=O)N[C@@H](CS)C(N)=O` (H-GCCSDPRCRYSHPEIC-NH2): at GABA-B receptor, the IC50 worked out at 18.6 nM. The Activity in the assay on Rattus norvegicus came out at 9%.

The record behind these values is ChEMBL document CHEMBL4680110 (2018).
